Ends that are not written are not given here.
Assay: In vitro saturation of lipid A binding site by peptide
Conditions: stoichiometric saturation

Lys-Thr-Lys-Cys-Lys-Phe-Leu-Lys-Lys-Cys (KTKCKFLKKC; also: cyclic, ring type not given here) [SAEP2]
affinity of binding to lipid A binding site: high affinity
